Assay results reported in ChEMBL document CHEMBL1128125, “Inhibitors of Acyl-CoA:Cholesterol O-acyltransferase (ACAT) as hypocholesterolemic agents 14. synthesis and structure-activity relationships of a novel series of sulfonamide tetrazoles” (Bioorg Med Chem Lett, 1995).

What was measured:
Rattus norvegicus [1] = test: Tested in vivo for its effect on changing plasma cholesterol level in rats at a dose of 30 mg/kg; format: functional
[2] = Inhibition of Acyl coenzyme A:cholesterol acyltransferase (ACAT); design: species or system Oryctolagus cuniculus
Rattus norvegicus [3] = test: Tested in vivo for its effect on changing plasma cholesterol level in rats at a dose of 3 mg/kg; format: functional

Compound | IC50 [2] [µM] | Delta TC (Rattus norvegicus [1]) [%] | Delta TC (Rattus norvegicus [3]) [%]
CCCCCCCCCCCCn1nnc(C(Cc2ccccc2)S(=O)(=O)Nc2c(C(C)C)cccc2C(C)C)n1 (stereo unspecified) | 0.057 | -27 | –
CCCCCCCCCCCCn1nnnc1CS(=O)(=O)Nc1c(OC)cc(OC)cc1OC | 3.7 | -30 | –
CCCCCCCCCCCCn1nnc(CS(=O)(=O)Nc2c(OC)cc(OC)cc2OC)n1 | 0.18 | -60 | –
CCCCCCCCn1nnc(CS(=O)(=O)Nc2c(C(C)C)cccc2C(C)C)n1 | 0.75 | -14 | –
CCCCCCCCCCCCn1nnc(CC(=O)Nc2c(C(C)C)cccc2C(C)C)n1 | 0.0026 | -64 | -62
CCCCCCCCCCCCCCCCS(=O)(=O)Nc1c(OC)cc(OC)cc1OC | 0.69 | – | -31
CCCCCCCCCCCCCCCCCCn1nnc(CS(=O)(=O)Nc2c(C(C)C)cccc2C(C)C)n1 | 7.6 | -31 | –
CCCCCCCCCCCCCCCCCC(=O)Nc1c(OC)cc(OC)cc1OC | 0.052 | -11 | -31

More lines, main results first:

IC50 [2] [µM] | Compound | Delta TC (Rattus norvegicus [1]) [%] | Delta TC (Rattus norvegicus [3]) [%]
0.6 | CCCCCCCCCCCCCCCCn1nnc(CS(=O)(=O)Nc2c(C(C)C)cccc2C(C)C)n1 | -20 | –
0.032 | CCCCCCCCCCCCn1nnc(C(C)S(=O)(=O)Nc2c(C(C)C)cccc2C(C)C)n1 (stereo unspecified) | -67 | –
0.15 | CCCCCCCCCCCCCCn1nnc(CS(=O)(=O)Nc2c(C(C)C)cccc2C(C)C)n1 | -42 | –
1.2 | CCCCCCCCCCCCn1nnnc1CS(=O)(=O)Nc1c(C(C)C)cccc1C(C)C | -41 | –
0.022 | CCCCCCCCCCCCn1nnc(CS(=O)(=O)Nc2c(C(C)C)cccc2C(C)C)n1 | -67 | -59
0.04 | CCCCCCCCCCCCn1nnc(C(C)(C)S(=O)(=O)Nc2c(C(C)C)cccc2C(C)C)n1 | -53 | –
